As a reminder, the Ki is the dissociation constant of the complex between target and ligand, obtained from inhibition or displacement. Low values mean a stronger hold on the target, high ones a looser hold on the target.

In assay [1] the target is T1, Dimer of Gag-Pol polyprotein [514-612] (Human immunodeficiency virus 2, UniProt P04584).
T1 construct: 514-612
T1 sequence (P04584 whole entry): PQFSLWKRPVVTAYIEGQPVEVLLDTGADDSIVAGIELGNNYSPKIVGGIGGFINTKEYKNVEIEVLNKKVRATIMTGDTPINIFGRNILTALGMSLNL
Kind of assay: Protease Inhibition Assay. Here is the method: (§1) Enzymatic activity was measured by following cleavage of the substrate H-Lys-Ala-Arg-Val-Leu-pNph-Glu-Ala-Nle-NH2. Products of the cleavage reaction were quantified by HPLC detection

The target of assay [2] is T2, Dimer of Gag-Pol polyprotein [489-587] (Human immunodeficiency virus 1, UniProt P12497).
T2 construct: 489-587
Kind of assay: Protease Inhibition Assay. Here is the method: as §1

In assay [1] (pH 4.7, 37 °C), `CC(C)[C@H](NC(=O)OCc1ccccc1)C(=O)N[C@@H](Cc1ccccc1)[C@@H](O)[C@@H](NCc1ccccc1)C(=O)N[C@H](C(=O)NCc1ccccc1)C(C)C` [5PhBuCOOH deriv.] returned an inhibitory constant (Ki) of 180 nM.

Consider `COc1ccc(CN[C@@H](C(=O)N[C@H](C(=O)NCc2nc3ccccc3[nH]2)C(C)C)[C@H](O)[C@H](Cc2ccccc2)NC(=O)[C@@H](NC(=O)OCc2ccccc2)C(C)(C)C)cc1` [5PhBuCOOH deriv.], for which the Ki in assay [1] came to 52 nM.

`CCC(C)[C@H](NC(=O)OCc1ccccc1)C(=O)N[C@@H](Cc1ccccc1)[C@@H](O)[C@@H](NCc1ccccc1)C(=O)N[C@H](C(=O)NCc1ccccc1)C(C)C` (stereo partly drawn) [5PhBuCOOH deriv.] had an inhibition constant (Ki) in assay [2] (pH 6.25, 37 °C) of 8.3 nM.

Turning to `CC(C)[C@H](NC(=O)[C@H](NCc1ccc(Cl)cc1)[C@H](O)[C@H](Cc1ccccc1)NC(=O)[C@@H](NC(=O)OCc1ccccc1)C(C)(C)C)C(=O)NCc1nc2ccccc2[nH]1` [benzyl N-[(1S)-1-{[(2S,3R,4R)-4-{[(1S)-1-[(1H-1,3-benzodiazol-2-ylmethyl)carbamoyl]-2-methylpropyl]carbamoyl}-4-{[(4-chlorophenyl)methyl]amino}-3-hydroxy-1-phenylbutan-2-yl]carbamoyl}-2,2-dimethylpropyl]carbamate], the Ki in assay [1] amounted to 17 nM.

Take `COc1ccc(CN[C@@H](C(=O)N[C@H](C(=O)NCc2nc3ccccc3[nH]2)C(C)C)[C@H](O)[C@H](Cc2ccccc2)NC(=O)[C@@H](NC(=O)CCc2ccc(O)cc2)C(C)(C)C)cc1` [5PhBuCOOH deriv.]: the Ki in assay [1] worked out at 63 nM.

`CC(C)[C@H](NC(=O)[C@H](NCc1ccccc1)[C@H](O)[C@H](Cc1ccccc1)NC(=O)[C@@H](NC(=O)OCc1ccccc1)C(C)(C)C)C(=O)NCc1ccccc1` [5PhBuCOOH deriv.]: the Ki in assay [1] (pH 4.7, 37 °C) was found to be 54 nM.

With `CC(C)[C@H](NC(=O)OCc1ccccc1)C(=O)N[C@@H](Cc1ccccc1)[C@@H](O)[C@@H](NCc1ccccc1)C(=O)N[C@@H](C(=O)NCc1ccccc1)C(C)(C)C` [5PhBuCOOH deriv.], the Ki in assay [2] is > 3000 nM.

Take `CC(C)[C@H](NC(=O)[C@H](NCc1ccccc1)[C@H](O)[C@H](Cc1ccccc1)NC(=O)[C@H](CCC(=O)O)NC(=O)OCc1ccccc1)C(=O)NCc1ccccc1` [5PhBuCOOH deriv.]: in assay [2] (pH 6.25, 37 °C), the affinity corresponds to a Ki of 45 nM.

For `COc1ccc(CN[C@@H](C(=O)N[C@H](C(=O)NCc2nc3ccccc3[nH]2)C(C)C)[C@H](O)[C@H](Cc2ccccc2)NC(=O)[C@@H](NC(=O)[C@@](C)(O)c2ccccc2)C(C)(C)C)cc1` [5PhBuCOOH deriv.], the Ki worked out at 6 nM in assay [2] and 110 nM in assay [1].

`CCC(C)[C@H](NC(=O)[C@H](NCc1ccccc1)[C@H](O)[C@H](Cc1ccccc1)NC(=O)[C@@H](NC(=O)OCc1ccccc1)C(C)C)C(=O)NCc1ccccc1` (stereo partly drawn) [benzyl N-[(1S)-1-{[(2S,3R,4R)-4-(benzylamino)-4-{[(1S,2R)-1-(benzylcarbamoyl)-2-methylbutyl]carbamoyl}-3-hydroxy-1-phenylbutan-2-yl]carbamoyl}-2-methylpropyl]carbamate]: the inhibition constant Ki in assay [2] (pH 6.25, 37 °C) was > 3000 nM.

The compound `COc1ccc(CN[C@@H](C(=O)N[C@H](C(=O)NCc2ccccc2)C(C)C)[C@H](O)[C@H](Cc2ccccc2)NC(=O)[C@@H](NC(=O)OCc2ccccc2)C(C)C)cc1` [benzyl N-[(1S)-1-{[(2S,3R,4R)-4-{[(1S)-1-(benzylcarbamoyl)-2-methylpropyl]carbamoyl}-3-hydroxy-4-{[(4-methoxyphenyl)methyl]amino}-1-phenylbutan-2-yl]carbamoyl}-2-methylpropyl]carbamate] gave an inhibition constant (Ki) in assay [1] (pH 4.7, 37 °C) of 39 nM.

In assay [2] (pH 6.25, 37 °C), `CC(C)[C@H](NC(=O)OCc1ccccc1)C(=O)N[C@@H](Cc1ccccc1)[C@@H](O)[C@@H](NCc1ccccc1)C(=O)N[C@H](C(=O)NCc1ccccc1)C(C)(C)C` [benzyl N-[(1S)-1-{[(2S,3R,4R)-4-(benzylamino)-4-{[(1S)-1-(benzylcarbamoyl)-2,2-dimethylpropyl]carbamoyl}-3-hydroxy-1-phenylbutan-2-yl]carbamoyl}-2-methylpropyl]carbamate] showed an inhibition constant Ki of 20 nM.

The record behind these values is BindingDB's records for doi:10.1021/jm00045a013 (Sandoz Forschungsinstitut Ges.M.B.H., 1994).
